Several values for one entry are separate records, joined by “and”; a condition that tells them apart may be missing. Identical values can stand only once. Like-named read-outs stand apart in the source and are kept apart here.
Columns and labels:
[1] = cited from earlier work
[2] = tested on: mitochondrial respiratory complex proteins; test: Western blot of mitochondrial respiratory complex proteins in UTS2R-transfected HEK293A cells; assay type: cell-based, human; conditions: 10 μM remdesivir, 48 h
[3] = tested on: human induced pluripotent stem cell-derived cardiomyocytes (hiPSC-CMs); test: Field potential recording (MEA) in hiPSC-CMs; assay type: cell-based; conditions: for prolonged FPD: 1 µM remdesivir; for FPD delay: remdesivir with UTS2R antagonist (urantide)
Procedure: Human induced pluripotent stem cell-derived cardiomyocytes (hiPSC-CMs) were purchased from Fujifilm Cellular Dynamics, Inc. (CDI; iCell cardiomyocytes 2.0). To prepare the probe (MED-PG515A, Alpha MED Sciences), the recording areas were coated with fibronectin and dissolved in Dulbecco’s phosphate-buffered saline to create a 50 µg/mL solution. The recording area was covered with 1–2 µL fibronectin solution, and the probes were incubated at 37 °C for at least 1 h. Cells were thawed and suspended in iCell Cardiomyocytes Plating Medium (CDI) and plated onto the probes at a density of 3.5×10^4 cells in a 2 µL plating medium. The cells were incubated at 37 °C in 5% CO2 for 3–4 h before filling each probe with 1 mL iCell cardiomyocytes maintenance medium (CDI), which was used as the culture medium. The medium was changed every 2–3 days, with the cells cultured in the probes for 5–14 days to obtain a sheet of cardiomyocytes with spontaneous and synchronous electrical activity.
FP recording was carried out[35],[60]. Before measuring FPs, iCell cardiomyocyte sheets were equilibrated for at least 4 h in a fresh culture medium using a 5% CO2 incubator at 37 °C. After equilibration, the probes were transferred to the multi-electrode array (MEA) system (MED64, Alpha med Scientific) and incubated in a humidified 5% CO2 atmosphere. The stability and constancy of the waveforms were confirmed by monitoring the signals for at least 30 min. Once the FPs reached a stable state, they were recorded for 10 min at the baseline and then 24, 48, and 72 h after drug treatment. The stock solutions of drugs were prepared in dimethyl sulfoxide (DMSO) or distilled water at a 1000-fold target concentration. The stock solution was diluted in a culture medium to a final concentration of 0.1% DMSO.
The FP duration (FPD) was defined as the duration from the first to the second peak in FP[35]. The FPD was corrected for the beat rate (inter-spike interval (ISI)) with Fridericia’s formula (Eq. 1), which was the primary method of correction in this study:1 (FPDcF=FPD/(ISI/1000)^1/3).

[4] = biological target: T1, UTS2R (β-arrestin 1 recruitment) (Homo sapiens, UniProt Q9UKP6); test: NanoBiT β-arrestin 1 recruitment assay for UTS2R; assay type: cell-based; conditions: β-arrestin 1, Fig. 1c
T1 construct: expressed in transfected cells; host or cells: HEK293A
T1 sequence (Q9UKP6 whole entry): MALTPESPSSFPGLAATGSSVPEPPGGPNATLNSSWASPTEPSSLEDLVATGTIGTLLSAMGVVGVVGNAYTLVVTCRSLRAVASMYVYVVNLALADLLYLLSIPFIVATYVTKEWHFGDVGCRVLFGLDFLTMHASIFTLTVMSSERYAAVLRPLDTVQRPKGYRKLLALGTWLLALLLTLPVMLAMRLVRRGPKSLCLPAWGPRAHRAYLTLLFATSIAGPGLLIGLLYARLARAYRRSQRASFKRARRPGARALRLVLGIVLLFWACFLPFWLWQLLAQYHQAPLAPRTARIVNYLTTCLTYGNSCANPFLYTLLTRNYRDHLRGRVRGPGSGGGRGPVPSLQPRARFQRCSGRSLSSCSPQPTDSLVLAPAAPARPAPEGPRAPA

[5] = tested on: ERK1/2 phosphorylation in HEK293 cells overexpressing UTS2R; test: Western blot of ERK1/2 phosphorylation in HEK293 cells overexpressing UTS2R; assay type: cell-based, human; conditions: application for up to 72 h
UTS2R T304A = test: TGFα-shedding assay on UTS2R mutant T304A; assay type: cell-based, human; conditions: cutoff value set to −1, single replicates
UTS2R G68C = test: TGFα-shedding assay on UTS2R SNV mutant G68C; assay type: cell-based, human; conditions: cutoff value set to −1, single replicates
[6] = biological target: T2, UTS2R (β-arrestin 2 recruitment) (Homo sapiens, UniProt Q9UKP6); test: NanoBiT β-arrestin 2 recruitment assay for UTS2R; assay type: cell-based; conditions: β-arrestin 2, Supplementary Fig. 1b
T2 construct: expressed in transfected cells; host or cells: HEK293A
T2 sequence (Q9UKP6 whole entry): as above

UTS2R N297A = test: TGFα-shedding assay on UTS2R mutant N297A; assay type: cell-based, human; conditions: cutoff value set to −1, single replicates
UTS2R D130G = test: TGFα-shedding assay on UTS2R SNV mutant D130G; assay type: cell-based, human; conditions: cutoff value set to −1, single replicates
UTS2R V159M = test: TGFα-shedding assay on UTS2R SNV mutant V159M; assay type: cell-based, human; conditions: cutoff value set to −1, single replicates
UTS2R M134A = test: TGFα-shedding assay on UTS2R mutant M134A; assay type: cell-based, human; conditions: cutoff value set to −1, single replicates
UTS2R D130N = biological target: T3, UTS2R D130N (Homo sapiens, UniProt Q9UKP6, D130N); test: TGFα-shedding assay on UTS2R mutant D130N; assay type: cell-based
T3 construct: expressed in transfected cells; host or cells: HEK293A
T3 sequence (Q9UKP6 whole entry D130N): as the sequence (Q9UKP6 whole entry) above, with D130N counted along it

hiPS-CMs = test: Perforated patch-clamp, spontaneous action potentials (APD90) of hiPS-CMs; assay type: cell-based, human; conditions: 10 µM remdesivir, 72 h
UTS2R M134T = test: TGFα-shedding assay on UTS2R mutant M134T; assay type: cell-based, human; conditions: cutoff value set to −1, single replicates
UTS2R A249G = test: TGFα-shedding assay on UTS2R SNV mutant A249G; assay type: cell-based, human; conditions: cutoff value set to −1, single replicates
FLAG-UTS2R = biological target: T4, FLAG-UTS2R (Homo sapiens, UniProt Q9UKP6); test: Competitive binding assay: biotin-UT2 pulldown of FLAG-UTS2R from HEK293 membrane fraction; conditions: membrane fraction of HEK293 cells expressing FLAG-UTS2R, streptavidin beads, western blot
T4 construct: expressed in transfected cells; host or cells: HEK293
T4 sequence (Q9UKP6 whole entry): as the sequence (Q9UKP6 whole entry) above
Procedure: HEK293 cells were transfected with the plasmid encoding FLAG-UTS2R and were serum-starved for 6 h before experimentation. Cells were washed twice with ice-cold PBS. Hypotonic solution (50 mM HEPES, pH 7.5 with protease inhibitor cocktails) was added to the cell plate, and the cells were harvested by scraping. Cells were homogenized using a dounce homogenizer (IKA EUROSTAR 20 digital) at 2,000 rpm for 20 strokes at 4 °C, and further homogenized using a tissue rupture (Qiagen) for 5 s at 4 °C. The homogenate was centrifuged at 800 x g for 10 min at 4 °C to remove unbroken cells and the nucleus. The supernatant was further centrifuged at 30,000×g for 30 min at 4° (CP80NX, himac). The resulting pellet was used as crude membrane fraction and was suspended in hyperosmotic solution (50 mM HEPES, pH 7.5, 250 mM NaCl, 2 mM EDTA with protease inhibitor).
The biotin-UT2-bound UTS2R complex was solubilized using a hyperosmotic buffer containing detergent (N-Dodecyl-β-D-maltopyranoside; DDM, 5× CMC) and pulled down using streptavidin magnetic beads. The suitable beads for the experiment were selected from 5 types (Supplementary Fig. 1d, Dynabeads Streptavidin Trial Kit, Thermo Fisher, and Streptavidin magnetic beads, NEB) and denatured with SDS buffer. […]

[7] = tested on: neonatal rat cardiomyocytes (NRCMs); conditions: for Contraction [a.u.]: 48 h
[8] = set-up: method as in earlier work; conditions: intravenous injection, healthy adults; cited from earlier work

CCC(CC)COC(=O)[C@H](C)N[P@](=O)(OC[C@H]1O[C@@](C#N)(c2ccc3c(N)ncnn23)[C@H](O)[C@@H]1O)Oc1ccccc1 [remdesivir]
patients showing arrhythmias (other than atrial fibrillation, supraventricular tachycardia, ventricular tachycardia, ventricular fibrillation) ([1]; ACTT-1 trial, patients receiving remdesivir): 0.2 % of patients
time to resolution of cardiac adverse effects after discontinuing remdesivir [1]: 24 to 48 h
steady-state levels of mitochondrial respiratory complex proteins [2]: did not affect
prolonged FPD ([3]; 24 h): 1.32 ± 1.38%
prolonged FPD ([3]; 48 h): 5.60 ± 1.60%
prolonged FPD ([3]; 72 h): 15.57 ± 3.49%
FPD delay ([3]; 24 h): −1.71 ± 1.60%
FPD delay ([3]; 48 h): −0.61 ± 0.11%
β-arrestin recruitment response [4]: failed to induce a β-arrestin recruitment response
phosphorylation of ERK1/2 [5]: long-lasting and dose-dependent phosphorylation of ERK1/2
⊿pEC50 compared to WT UTS2R (UTS2R T304A): -1
⊿pEC50 compared to WT UTS2R (UTS2R G68C): > 0.3 and 0.5256 and 0.7054 and 0.6735 and 0.5172
β-arrestin recruitment response [6]: failed to induce a β-arrestin recruitment response
⊿pEC50 compared to WT UTS2R (UTS2R N297A): -1 and -0.7407
⊿pEC50 compared to WT UTS2R (UTS2R D130G): > 0.3 and 0.2569 and 0.39 and 0.2404 and 0.3246
⊿pEC50 compared to WT UTS2R (UTS2R V159M): > 0.3 and 0.3136 and 0.3109 and 0.3308 and 0.4558
⊿pEC50 compared to WT UTS2R (UTS2R M134A): -1
receptor activation of D130N mutant (UTS2R D130N; D130N mutation vs WT, TGFα-shedding): significantly upregulated
⊿pEC50 compared to WT UTS2R (UTS2R D130N; D130N, cutoff value set to −1, single replicates): 0.5051 and 0.5402 and 0.5471 and 0.5928 and 0.4845
APD90 (action potential duration at 90% repolarization) (hiPS-CMs): significantly prolonged
⊿pEC50 compared to WT UTS2R (UTS2R M134T): -1
⊿pEC50 compared to WT UTS2R (UTS2R A249G): > 0.3 and 0.2782 and 0.2736 and 0.3671 and 0.2913
biotin–UT2-mediated UTS2R pulldown (FLAG-UTS2R): significantly impaired
Contraction [a.u.] ([7]; Fig.4a, 1 µM remdesivir, pacing, replicates): 0.1429 a.u. and 0.1533 a.u. and 0.1024 a.u.
Contraction [a.u.] ([7]; Fig.4a, urantide (100 nM) + 1 µM remdesivir): 0.2641 a.u. and 0.2651 a.u. and 0.2715 a.u.
Contraction [a.u.] ([7]; Fig.4b, 1 µM remdesivir, pacing, replicates): 0.1019 a.u. and 0.1158 a.u. and 0.1194 a.u.
Contraction [a.u.] ([7]; Fig.4b, PTX (150 ng/mL) + 1 µM remdesivir): 0.3302 a.u. and 0.3344 a.u. and 0.3245 a.u.
Contraction [a.u.] ([7]; Fig.4b, YM-254890 (1 μM) + 1 µM remdesivir): 0.108 a.u. and 0.1376 a.u. and 0.1361 a.u.
contractility of NRCMs ([7]; chronic remdesivir treatment, constant pacing): reduced contractility
maximum plasma concentration [8]: 9.03 µM

— publication PMC10175918 (Communications Biology, 2023)
